Source: patent US20250122455A1, “INTEGRATED SYSTEM FOR MULTIPLE CULTIVATIONS OF A BIOLOGICAL AGENT AND METHODS OF USE THEREOF” (The Hong Kong Polytechnic University, priority 2023, published 2025)

Columns and labels:
PAO1 static biofilms = experiment: Alamar blue viability of static biofilms in the BDR device after antibiotic treatment; format: cell-based, Pseudomonas aeruginosa
Procedure: The PAO1 culture was diluted 100-fold in ABTGC media and inoculated at 100 μl into each channel of the microfluidic model using a syringe and needle. Then the model was placed in a 37° C. incubator for 20 mins to allow bacteria to colonize the bottom of the microwells. ABTGC media containing tobramycin (Sigma) with concentrations of 0, 0.625, 1.25, 2.5, 5 ug/ml were injected into each chamber for 12 hrs treatment. Alamar blue cell viability reagent (Thermo Fisher) was diluted with culture media to 10% and injected into chambers, then incubated at 37° C. until the color changed from blue to pink. The colored liquid was collected from the chamber for direct measurement of OD600 nm and fluorescence (Ex: 560 nm, Em: 590 nm) using a microplate reader (Thermo Scientific Varioskan LUX Multimode Microplate Reader).

P. aeruginosa biofilms = format: cell-based, Pseudomonas aeruginosa

Molecule	Fluorescence level of Alamar blue (PAO1 static biofilms; increasing tobramycin 0-5 ug/ml, 12 hrs treatment, without continuous flow, FIG. 22A)	Bacterial numbers (viable cell populations) (PAO1 static biofilms; increasing tobramycin, static biofilms, FIG. 22B)	Biofilm biomass change during EDA (P. aeruginosa biofilms)
NC[C@H]1O[C@H](O[C@H]2[C@H](O)[C@@H](O[C@H]3O[C@H](CO)[C@@H](O)[C@H](N)[C@H]3O)[C@H](N)C[C@@H]2N)[C@H](N)C[C@@H]1O [tobramycin]	decreased	reducing bacterial numbers	
cellulase			continuous reduction of biofilm from top to bottom of the microwells
